Laboratory results: patent US20250326794A1, “ANTI-CANCER LEUCINE-RICH PEPTIDES AND USES THEREOF” (KING'S COLLEGE LONDON, priority 2019, published 2025)
Like-named read-outs stand apart in the source and are kept apart here.

Assays:
[1] = Tryptophan fluorescent binding assay, 3POPC/1POPG vesicles; settings: 50 μM peptide, PBS pH 7.4, lipid per peptide
Description: (§1) In brief, 50 μM peptides were fixed and incubated with titrated POPC vesicles (black) or 3POPC/1POPG vesicles (grey) at concentrations of 0, 12.5, 25, 50, 100, 250, 500, 1000, 2500, and 5000 μM in phosphate buffered saline (1×, pH 7.4). The lipid concentration that causes 50% peptide binding was determined using a tryptophan fluorescent binding assay and the values are shown as lipid per peptide.
(§2) The lipids 1-palmitoyl-2-oleoyl-sn-glycero-3-phosphocholine (POPC), 1-palmitoyl-2-oleoyl-snglycero-3-phospho-(1′-rac-glycerol) (POPG) were purchased from Avanti Polar Lipids and dissolved in chloroform. Large unilamellar vesicles (LUVs) were produced by extrusion through 100 nm pore filter using an extruder and filters purchased from Avanti Polar Lipids.
(§3) Peptides (50 μM) and POPC/POPG LUVs (600 μM) were prepared in 10 mM phosphate buffer (pH 7.0). The solutions were incubated and measured after 60 minutes. Excitation was fixed at 280 nm (slit 9 nm) and emission was collected from 300 to 450 nm (slit 9 nm). The spectra were recorded using a Synergy H1 Hybrid Multi-Mode Reader (FIG. 3A) and Cytation™ 5 Cell Imaging Multi-Mode Reader (FIG. 2) from BioTek and were averaged over 3 scans.
(§4) Table 3 illustrates the lipid concentration-induced 50% peptide binding onto a liposome. 50 μM peptide was fixed and incubated with titrated lipid (POPC vesicles or 3POPC/1POPG vesicles) at concentrations of 0, 12.5, 25, 50, 100, 250, 500, 1000, 2500, and 5000 μM in phosphate buffered saline (1×, pH 7.4). The lipid concentration that causes 50% peptide binding was determined using tryptophan fluorescent binding assay and the values are shown as lipid per peptide. †N-terminus is free, C-terminus: —W—NH2.

[2] = Tryptophan fluorescent binding assay, POPC vesicles; settings: 50 μM peptide, PBS pH 7.4, lipid per peptide
Description: as §1, §2, §3, §4

[3] = test system: U2OS (human bone osteosarcoma)
Excerpt: (§5) HMLER (human mammary endothelial cancer cells), HMLER-shEcad (human mammary endothelial cancer stem cells), and MCF-10A (healthy human mammary endothelial) cells were maintained in Mammary Epithelial Cell Growth Medium (MEGM) with supplements and growth factors: bovine pituitary extract (BPE), hydrocortisone, human epidermal growth factor (hEGF), insulin, and gentamicin/amphotericin-B. HEK293T (human embryonic kidney cell), and U2OS (Homo sapiens bone osteosarcoma) cells were maintained in Dulbecco's Modified Eagle's Medium (DMEM) with a final concentration of 10% fetal bovine serum. The cells were grown in T75 flask at 310 K in a humidified atmosphere containing 5% CO2.
(§6) The colourimetric MTT (3-(4,5-dimethylthiazol-2-yl)-2,5-diphenyltetrazolium bromide) assay was used to determine the toxicity of the anticancer peptides and conventional anticancer drugs. 5×10^3 cells were seeded in each well of a 96-well microplate. The cells were incubated overnight. Elevated concentrations of the compounds (0, 0.1, 0.2, 0.4, 0.8, 1.6, 3.1, 6.3, 12.5, 25, 50 and 100 μM) were added and incubated for 72 hr with a total volume 200 μL. The stock solutions of the compounds were prepared as 5 mM solutions in DMSO and diluted using media or in pure water. The final concentration of DMSO in each well was either 0.5% or 0% and this amount was present in the untreated control. After 72 hr, 20 μL of a 4 mg/mL solution of MTT in PBS was added to each well, and the plate was incubated for an additional 4 hr. The MEGM/MTT mixture was aspirated and 100 μL of DMSO was added to dissolve the resulting purple formazan crystals. The absorbance of the solutions in each well was read at 550 nm wavelength. Absorbance values were normalized to either DMSO-containing or non DMSO-containing control wells and plotted as concentration of test compound versus % cell viability. IC50 values were interpolated from the resulting dose dependent curves.
(§7) The peptides were screened against several different human cell lines and their cytotoxicity were determined. Cell lines utilised include MCF-10A (human breast epithelial cell), HMLER (human breast cancer bulk cell), HMLER-shEcad (human breast cancer stem cell), HEK293T (human embryonic kidney cell), and U2OS (human bone osteosarcoma).

[4] = ANTS/DPX liposome leakage assay, POPC vesicles; assay type: biochemical; settings: 0.5 mM vesicles; for Peptide Concentration-induced 50% ANTS/DPX leakage at pH 4.8, POPC Vesicle: pH 4.8, lipid per peptide; for Peptide Concentration-induced 50% ANTS/DPX leakage at pH 7.4, POPC Vesicle: pH 7.4, lipid per peptide
Description: (§8) In brief, 0.5 mM POPC vesicles (grey) or POPC:POPG vesicles (ratio 3:1, black) were incubated with peptide concentrations of 0, 0.02, 0.04, 0.08, 0.16, 0.32, 0.64, 1.25, 2.5, 5, 10, and 20 μM in each A) hydrochloric acid-adjusted phosphate buffered saline (1×, pH 4.8) and B) phosphate buffered saline (1×, pH 7.4).
as §2
(§9) 5 mM ANTS (8-aminonaphthalene-1,3,6-trisulfonic acid, disodium salt) and 12.5 mM DPX (p-xylene-bis-pyridinium bromide) were entrapped in 0.1 μm diameter extruded vesicles with lipids. Gel filtration chromatography using a Sephadex G-100 (GE Healthcare Life Sciences Inc) was used to remove external free ANTS/DPX from LUVs with entrapped contents. LUVs were diluted to 0.5 mM and used to measure the leakage activity by addition of aliquots of peptides. Leakage was measured after 3 h incubation. 10% Triton was used as the positive control to measure the maximum leakage of the vesicle. Fluorescence emission spectra were recorded using excitation and emission wavelength of 350 nm and 510 nm for ANTS/DPX using a BioTek Synergy H1 Hybrid Multi-Mode Reader.
(§10) Table 4 illustrates peptide concentration-induced 50% ANTS/DPX liposome leakage. 0.5 mM POPC and 3POPC/1POPG vesicles were fixed and incubated with titrated peptide concentration ([…]) each in phosphate buffered saline (1×, pH 7.4) and hydrochloric acid-adjusted phosphate buffered saline (1×, pH 4.8). The values are shown as lipid per peptide. †N-terminus is free, C-terminus: —W—NH2.

[5] = ANTS/DPX liposome leakage assay, 3POPC/1POPG vesicles; assay type: biochemical; settings: 0.5 mM vesicles; for Peptide Concentration-induced 50% ANTS/DPX leakage at pH 4.8, 3POPC/1POPG Vesicle: pH 4.8, lipid per peptide; for Peptide Concentration-induced 50% ANTS/DPX leakage at pH 7.4, 3POPC/1POPG Vesicle: pH 7.4, lipid per peptide
Description: as §8, §2, §9, §10

[6] = test system: HMLER (human breast cancer bulk cell); assay: cells
Excerpt: as §5, §6, §7

[7] = test system: HEK293T (human embryonic kidney cell); assay: cells
Excerpt: as §5, §6, §7

[8] = test system: HMLER-shEcad (human breast cancer stem cell); assay: cells
Excerpt: as §5, §6, §7

Compound	Lipid Concentration-induced 50% Peptide Binding, 3POPC/1POPG Vesicle [1]	Lipid Concentration-induced 50% Peptide Binding, POPC Vesicle [2]	IC50 ([3]; 72 h)	Peptide Concentration-induced 50% ANTS/DPX leakage at pH 4.8, POPC Vesicle [4]	Peptide Concentration-induced 50% ANTS/DPX leakage at pH 7.4, POPC Vesicle [4]	Peptide Concentration-induced 50% ANTS/DPX leakage at pH 4.8, 3POPC/1POPG Vesicle [5]	Peptide Concentration-induced 50% ANTS/DPX leakage at pH 7.4, 3POPC/1POPG Vesicle [5]	IC50 ([6]; 72 h)	IC50 ([7]; 72 h)	IC50 ([8]; 72 h)	IC50 ([3]; read-out: IC50 U20S, MTT, 72 hr)	IC50 ([6]; read-out: IC50 HMLER, MTT, 72 hr)	IC50 ([7]; read-out: IC50 HEK293T, MTT, 72 hr)	IC50 ([8]; read-out: IC50 HMLER-shEcad, MTT, 72 hr)
CC(C)C[C@H](NC(=O)CN)C(=O)N[C@@H](CC(C)C)C(=O)N[C@@H](CC(=O)O)C(=O)N[C@@H](CC(C)C)C(=O)N[C@@H](CC(C)C)C(=O)N[C@@H](CCCCN)C(=O)N[C@@H](CC(C)C)C(=O)N[C@@H](CC(C)C)C(=O)N[C@@H](CC(C)C)C(=O)N[C@@H](Cc1c[nH]cn1)C(=O)N[C@@H](C)C(=O)N[C@@H](C)C(=O)NCC(=O)N[C@@H](Cc1c[nH]c2ccccc12)C(N)=O [DKH]	0.46 L/P	10.00 L/P	21.1 ± 3.01 µM	41 L/P	614 L/P	58 L/P	274 L/P	3.45 ± 0.07 µM	6.15 ± 1.34 µM	2.8 ± 0.28 µM				
CC(C)C[C@H](NC(=O)CN)C(=O)N[C@@H](CC(C)C)C(=O)N[C@@H](CC(=O)O)C(=O)N[C@@H](CC(C)C)C(=O)N[C@@H](CC(C)C)C(=O)N[C@@H](CCC(=O)O)C(=O)N[C@@H](CC(C)C)C(=O)N[C@@H](CC(C)C)C(=O)N[C@@H](CC(C)C)C(=O)N[C@@H](CCC(=O)O)C(=O)N[C@@H](C)C(=O)N[C@@H](C)C(=O)NCC(=O)N[C@@H](Cc1c[nH]c2ccccc12)C(N)=O [DEE]	0.38 L/P	0.63 L/P	61 ± 1.41 µM	110 L/P	644 L/P	164 L/P	597 L/P	5.55 ± 0.35 µM	9.91 ± 0.44 µM	6.05 ± 2.76 µM				
CC(C)C[C@H](NC(=O)CN)C(=O)N[C@@H](CC(C)C)C(=O)N[C@@H](CCCCN)C(=O)N[C@@H](CC(C)C)C(=O)N[C@@H](CC(C)C)C(=O)N[C@@H](Cc1c[nH]cn1)C(=O)N[C@@H](CC(C)C)C(=O)N[C@@H](CC(C)C)C(=O)N[C@@H](CC(C)C)C(=O)N[C@@H](CCCCN)C(=O)N[C@@H](C)C(=O)N[C@@H](C)C(=O)NCC(=O)N[C@@H](Cc1c[nH]c2ccccc12)C(N)=O [KHK]	0.38 L/P	0.17 L/P	12.9 ± 1.24 µM	140 L/P	1153 L/P	53 L/P	193 L/P	2.59 ± 0.92 µM	3.55 ± 0.78 µM	1.4 ± 0.14 µM				
CC(C)C[C@H](NC(=O)CN)C(=O)N[C@@H](CC(C)C)C(=O)N[C@@H](Cc1c[nH]cn1)C(=O)N[C@@H](CC(C)C)C(=O)N[C@@H](CC(C)C)C(=O)N[C@@H](CCC(=O)O)C(=O)N[C@@H](CC(C)C)C(=O)N[C@@H](CC(C)C)C(=O)N[C@@H](CC(C)C)C(=O)N[C@@H](CCCCN)C(=O)N[C@@H](C)C(=O)N[C@@H](C)C(=O)NCC(=O)N[C@@H](Cc1c[nH]c2ccccc12)C(N)=O [HEK]	0.46 L/P	0.44 L/P		97 L/P	755 L/P	41. L/P	386 L/P	2.35 ± 1.06 µM	6.95 ± 1.63 µM	3.45 ± 2.19 µM				
CC(C)C[C@@H](NC(=O)CN)C(=O)N[C@H](CC(C)C)C(=O)N[C@H](CC(=O)O)C(=O)N[C@H](CC(C)C)C(=O)N[C@H](CC(C)C)C(=O)N[C@H](CCC(=O)O)C(=O)N[C@H](CC(C)C)C(=O)N[C@H](CC(C)C)C(=O)N[C@H](CC(C)C)C(=O)N[C@H](CCCCN)C(=O)N[C@H](C)C(=O)N[C@H](C)C(=O)NCC(=O)N[C@H](Cc1c[nH]c2ccccc12)C(N)=O [D-form DEK]			5.84 ± 0.04 µM					0.44 ± 0.1 µM	3.28 ± 0.21 µM	0.36 µM				
CC(C)C[C@@H](NC(=O)CN)C(=O)N[C@H](CC(C)C)C(=O)N[C@H](CC(=O)O)C(=O)N[C@H](CC(C)C)C(=O)N[C@H](CC(C)C)C(=O)N[C@H](Cc1c[nH]cn1)C(=O)N[C@H](CC(C)C)C(=O)N[C@H](CC(C)C)C(=O)N[C@H](CC(C)C)C(=O)N[C@H](CCCCN)C(=O)N[C@H](C)C(=O)N[C@H](C)C(=O)NCC(=O)N[C@H](Cc1c[nH]c2ccccc12)C(N)=O [D-form DHK]											1.24 ± 0.03 µM	0.32 ± 0.07 µM	1.55 ± 0.37 µM	0.23 ± 0.04 µM
